Where a name gives a salt, the structure may show the parent alone. Read-outs that look alike come from different tables or passages of the source.

Usually LD50 stands for the dose at which mortality reaches 50%. Higher therefore signals a less toxic substance.

One series deals with rat stomach. Particulars: i.v., as maleate; cited from earlier work.
For a further series, the target named is T1, histamine H2 receptors (Rattus norvegicus, UniProt P25102).
T1 construct: from tissue; host or cells: stomach of the atropinized rat, in vivo (endogenous receptor)
The series is described as follows: antisecretory activity: antagonism of the gastric acid hypersecretion induced by histamine in the atropinized rat (Ghosh and Schild, modified according to Black et al.). In kind it is in vivo. Particulars: for ED50: read-out: DI50 (ID50: dose which inhibits by 50% the gastric hypersecretion induced by histamine). As to the method: According to this test, a gastric acid hypersecretion is induced by intravenous infusion of a sub-maximal dose of histamine equivalent to 15 mcmol/kg/hour and the gastric secretion is measured by perfusion of a physiological solution at a constant speed in the stomach of the animal.
Such a ID50 represents the index of the gastric H2 -blocking action.

Series [1] can be described thus: acute toxicity by intraperitoneal route in the mouse. In kind it is in vivo. Particulars: in vivo, ip. From the text:
(§1) With respect of their degree of activity, the compounds of the present invention are poorly toxic.

A further series relates to mouse. Described as above. In kind it is in vivo. The note with it: 375 mg/kg.
From the text: as §1

The mark [2] stands for this setting: atropinized rat, intravenous route, single administration, histamine i.v. infusion 15 mcmol/kg/hour.

T1 sequence (P25102 whole entry): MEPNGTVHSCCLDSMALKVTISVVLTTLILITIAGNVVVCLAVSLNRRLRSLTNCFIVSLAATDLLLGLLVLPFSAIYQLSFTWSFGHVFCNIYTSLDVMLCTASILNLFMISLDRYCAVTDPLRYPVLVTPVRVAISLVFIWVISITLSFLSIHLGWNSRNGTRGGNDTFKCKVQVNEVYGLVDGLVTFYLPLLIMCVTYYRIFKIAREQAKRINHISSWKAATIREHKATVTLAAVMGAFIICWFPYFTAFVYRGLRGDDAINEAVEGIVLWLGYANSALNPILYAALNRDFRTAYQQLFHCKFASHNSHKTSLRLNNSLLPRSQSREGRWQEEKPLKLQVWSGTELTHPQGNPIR

In the case of `N=C(N)Nc1nc(CSCCNC=O)cs1` [2-guanidino-4-[(2-formamido)ethylthiomethyl]thiazol], the ED50 in the series with rat stomach is recorded as 0.25 mg/kg.

With `CS(=O)(=O)Nc1ccc(C(=O)NCCSCc2csc(NC(=N)N)n2)cc1` [Compound A, 4-methanesulfonamido-N-[2-(2-guanidinothiazol-4-ylmethylthio)ethyl]benzamide, reference compound], the ED50 at histamine H2 receptors (setting [2]) is 1.66 µmol/kg. Also, the “Relative potency (cimetidine = 1)” value on histamine H2 receptors (atropinized rat, i.v.) came out at 0.57.

In series [1], `N=C(N)Nc1nc(CSCCNC(=O)c2cccnc2)cs1` [Compound B, N-[2-(2-guanidinothiazol-4-ylmethylthio)ethyl]nicotinamide, reference compound] yielded an LD50 of 342 µmol/kg. Moreover, the ED50 at histamine H2 receptors (setting [2]) worked out at 0.28 µmol/kg. Moreover, on histamine H2 receptors (atropinized rat, i.v.), the “Relative potency (cimetidine = 1)” value is 7.39.

For `CNC(=C[N+](=O)[O-])NCCSCc1ccc(CN(C)C)o1` [Ranitidine, N-[2-[[5-[(dimethylamino)methyl]furfuryl]thio]ethyl]-N'-methyl-2-nitro-1,1-ethenediamine, reference compound], on histamine H2 receptors (atropinized rat, i.v.), the “Relative potency (cimetidine = 1)” value worked out at 3.80.

`CS(=O)(=O)Nc1cccc(C(=O)NCCSCc2csc(NC(=N)N)n2)c1.Cl` [SR 57938 A, 3-methanesulfonamido-N-[2-(2-guanidinothiazol-4-ylmethylthio)ethyl]benzamide hydrochloride]: the “Relative potency (cimetidine = 1)” value at histamine H2 receptors (atropinized rat, i.v.) stood at 6.33. Further, at histamine H2 receptors (comparison in words, from Table I, atropinized rat, i.v.), the “activity compared with reference compounds” value is listed as “ten times more active than "Compound A"”. For the same molecule, the ED50 at histamine H2 receptors (rat, iv) stood at 0.15 µmol/kg.

The molecule `N=C(N)Nc1nc(CSCCNC(=O)c2ccc[n+]([O-])c2)cs1` [SR 57957 A, neutral fumarate of N-[2-(2-guanidinothiazol-4-ylmethylthio)ethyl]-3-pyridine carboxamide 1-oxide] showed an LD50 in series [1] above 900 µmol/kg. Moreover, in the series on mouse, the mortality result is recorded as “does not cause any mortality”. For the same molecule, on histamine H2 receptors (setting [2]), the ED50 was determined as 0.1 µmol/kg. Also, the “Relative potency (cimetidine = 1)” value at histamine H2 receptors (atropinized rat, i.v.) worked out at 9.5.

With `N=C(N)Nc1nc(CSCCNC(=O)c2cccc(NS(=O)(=O)c3ccccc3)c2)cs1` [SR 57963 A, neutral fumarate of 3-benzenesulfonamido-N-[2-(2-guanidinothiazol-4-ylmethylthio)ethyl]benzamide], the ED50 on histamine H2 receptors (setting [2]) was 0.065 µmol/kg. For the same molecule, the “Relative potency (cimetidine = 1)” value on histamine H2 receptors (atropinized rat, i.v.) was 14.6.

Values taken from patent US4501747A, “Certain amide derivatives of 2-guanidino-thiazoles and compositions containing same” (Sanofi, priority 1982, dated 1985).
